In patent US10391101B2, “Derivatives of 7-fluoro-8-chloro-5H-dibenzo [B,E,] [1,4] diazepine and use thereof” (VALENTEK LLC, priority 2014, dated 2019):

Experiments:
[1] = Sedation study, total distance traveled; details: CF-1 mice, oral 1, 5 and 10 mg/kg
[2] = biological target: T1, M4 muscarinic receptor (Homo sapiens, UniProt P08173); assay: cell-based
T1 sequence (P08173 1-479): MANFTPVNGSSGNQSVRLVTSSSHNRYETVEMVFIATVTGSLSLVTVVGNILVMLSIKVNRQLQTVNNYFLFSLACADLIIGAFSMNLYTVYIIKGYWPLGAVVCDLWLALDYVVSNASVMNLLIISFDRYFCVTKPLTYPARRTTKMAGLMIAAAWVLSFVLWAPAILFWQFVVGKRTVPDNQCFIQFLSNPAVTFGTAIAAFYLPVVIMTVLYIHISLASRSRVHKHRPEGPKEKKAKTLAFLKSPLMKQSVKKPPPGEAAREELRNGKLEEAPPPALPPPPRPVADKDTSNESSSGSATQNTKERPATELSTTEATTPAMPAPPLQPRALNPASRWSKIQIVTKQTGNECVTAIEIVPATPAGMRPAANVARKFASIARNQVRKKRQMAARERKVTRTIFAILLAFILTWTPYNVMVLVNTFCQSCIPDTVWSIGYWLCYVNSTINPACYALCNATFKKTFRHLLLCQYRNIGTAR
Experimental: (§1) Functional experiments were performed in the set-up of agonism and antagonism. In the set-up of agonism the test substance was added directly to the cells expressing the receptor and was determined as the dependence of the response intensity on the substance concentration. Concentration at which the half-peak response (EC50) could be reached served as a measure of activity of agonists.
(§2) In the set-up of antagonism, the ability of test substances to block the action of agonists was assessed. For this purpose, cells were incubated with the test substances, then the reference agonists were added in the system and the functional response was determined.
The curves of dependence of functional response on the concentration of compounds for the receptor were made; the level of second messenger—cAMP determined according to the fluorescence after the lysis of cell expressing the receptor was taken as a criterion.

[3] = biological target: D2 dopamine receptors (Homo sapiens, UniProt P14416); assay: cell-based; details: determined by IC50 values in the set-up of antagonism
Experimental: (§3) The response on cells expressing D2 receptors was determined according to the change in the cell conductibility induced by redistribution of intracellular calcium. For D4 receptor the level of second messenger—cAMP was taken as the criterion.

[4] = 5-oxytriptophan hyperkinesia (head twitches); type: in vivo; details: mice, intragastric 1.0-10.0 mg/kg, 5-oxytriptophan 300 mg/kg i.p.
Experimental: It is known that the precursor of serotonin (5-oxytriptophan, 5-OT) causes a specific hyperkinesia in mice in the form of head-twitching with average duration of 30-60 minutes, which is explained by the activation of serotonergic system of the CNS. […] Each experimental group included 10 male mice weighing 20-22 g. The test substances were administered intragastrically at 1.0, 2.5, 5.0 and 10.0 mg/kg 30 minutes before the intraperitoneal administration of 5-oxytriptophan at a dose of 300 mg/kg. We counted the number of head twitches per 1 minute at intervals of 10 minutes during 60 minutes.

[5] = biological target: T2, M1 receptors (Homo sapiens, UniProt P11229); assay: M1 receptor activation functional study (Fluo-4 NW Ca2+ fluorescence); type: cell-based; details: concentration-response curves, FIG. 2
T2 sequence (P11229 1-460): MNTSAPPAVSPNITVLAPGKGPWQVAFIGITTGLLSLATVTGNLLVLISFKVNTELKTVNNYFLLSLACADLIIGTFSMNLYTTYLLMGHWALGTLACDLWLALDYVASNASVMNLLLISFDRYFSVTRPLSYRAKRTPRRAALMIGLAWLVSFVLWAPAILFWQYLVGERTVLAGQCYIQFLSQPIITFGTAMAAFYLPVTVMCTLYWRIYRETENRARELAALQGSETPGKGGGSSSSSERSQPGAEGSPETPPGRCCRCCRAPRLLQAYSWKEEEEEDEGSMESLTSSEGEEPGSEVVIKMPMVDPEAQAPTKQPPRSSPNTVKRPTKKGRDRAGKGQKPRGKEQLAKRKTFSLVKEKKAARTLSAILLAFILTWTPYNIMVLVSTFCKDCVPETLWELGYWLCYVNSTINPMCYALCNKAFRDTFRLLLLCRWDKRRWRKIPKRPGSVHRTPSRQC
Experimental: The activity was determined according to the fluorescence of Fluo-4 NW indicator introduced into cells induced by the change in Ca2+ ion concentration in the cytosol.

[6] = tested on: family of adrenergic receptors; assay: Panel of G-protein-coupled receptors, adrenergic receptors; details: GPCR panel
Excerpt: In conjunction with the results of preliminary toxicological studies, the data indicates a reduction in the risk of autonomic dysfunctions, such as tachysystole, orthostatism, accommodation disorder, dysfunction of gastrointestinal tract and urination, weight gain, lack of coordination of muscle movements.

[7] = biological target: T3, D4 dopamine receptors (Homo sapiens, UniProt P21917); assay: D4 dopamine receptor antagonism, Kb from IC50 (cAMP level); type: cell-based
T3 sequence (P21917 1-419): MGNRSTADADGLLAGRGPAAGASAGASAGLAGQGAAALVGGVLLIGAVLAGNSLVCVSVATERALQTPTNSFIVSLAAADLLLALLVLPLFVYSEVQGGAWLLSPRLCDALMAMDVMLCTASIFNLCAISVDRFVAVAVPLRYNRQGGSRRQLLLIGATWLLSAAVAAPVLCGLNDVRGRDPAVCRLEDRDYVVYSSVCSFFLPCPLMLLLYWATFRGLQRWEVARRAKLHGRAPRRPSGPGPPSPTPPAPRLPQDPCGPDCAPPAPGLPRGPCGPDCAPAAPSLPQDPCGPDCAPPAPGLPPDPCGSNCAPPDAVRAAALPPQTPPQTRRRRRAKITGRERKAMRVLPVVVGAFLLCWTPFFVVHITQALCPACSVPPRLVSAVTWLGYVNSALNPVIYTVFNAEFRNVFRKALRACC
Experimental: as §3

[8] = Metabolism and distribution of fluoroclozapine in tissues; details: rats, single oral fluoroclozapine 10 mg/kg
[9] = Prepulse inhibition of acoustic startle response, ketamine-induced deficit; details: mice, ketamine 50 mg/kg i.p.
[10] = Sub-chronic toxicity, morphological parameters of blood (neutrophil kinetics); type: in vivo; details: rats, intragastric 5 mg/kg daily for 28 days
Excerpt: The positive effect of the introduction of fluorine has been observed in pre-clinical studies of sub-chronic toxicity. […]. Increase in the number of neutrophils has been observed among rats after administration of aminoglutethimide, which also involves a high risk of agranulocytosis (Ng, W. et. al., Chem Res Toxicol, 2013, 26, 1272-81). Thus changes in the kinetics of neutrophils after intake of the medication can serve as a biomarker to predict the risk of agranulocytosis.
The neutrophil kinetics has been studied within comparative tests of sub-chronic toxicity. Studies have been conducted using rats upon intragastric administration of the substance at a dose of 5 mg/kg. The test substances were administered daily for 28 days. Each experimental group was composed of 10 animals of each sex.

[11] = biological target: H4 receptor (Homo sapiens, UniProt Q9H3N8); assay: H4 histamine receptor functional experiment, agonism set-up (cell conductibility); type: cell-based
Experimental: (§4) The functional activity of compounds on the H4 receptor was determined according to the change in the cell conductibility induced by redistribution of intracellular calcium. The activity for H1 receptor was determined according to the fluorescence of Fluo-4 NW indicator introduced into cells induced by the change in Ca2+ ion concentration in the cytosol.
as §1, §2

[12] = biological target: H1 receptor (Homo sapiens, UniProt P35367); assay: H1 histamine receptor functional experiment, antagonism set-up (Fluo-4 NW Ca2+ fluorescence); type: cell-based
Experimental: as §4, §1, §2

D2 dopamine receptors, sequence (P14416 whole entry): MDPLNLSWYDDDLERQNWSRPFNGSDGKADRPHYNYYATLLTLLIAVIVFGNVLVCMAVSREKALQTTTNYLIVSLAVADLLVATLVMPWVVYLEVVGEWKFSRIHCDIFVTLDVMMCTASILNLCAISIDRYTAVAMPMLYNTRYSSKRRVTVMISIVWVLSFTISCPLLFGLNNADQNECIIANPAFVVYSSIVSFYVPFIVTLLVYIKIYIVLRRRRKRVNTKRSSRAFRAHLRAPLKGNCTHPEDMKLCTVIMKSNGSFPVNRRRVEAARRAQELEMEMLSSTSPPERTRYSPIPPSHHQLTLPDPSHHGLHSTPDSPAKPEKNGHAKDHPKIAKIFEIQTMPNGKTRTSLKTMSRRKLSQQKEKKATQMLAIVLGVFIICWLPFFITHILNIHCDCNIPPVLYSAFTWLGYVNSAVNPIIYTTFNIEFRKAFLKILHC
H4 receptor, sequence (Q9H3N8 whole entry): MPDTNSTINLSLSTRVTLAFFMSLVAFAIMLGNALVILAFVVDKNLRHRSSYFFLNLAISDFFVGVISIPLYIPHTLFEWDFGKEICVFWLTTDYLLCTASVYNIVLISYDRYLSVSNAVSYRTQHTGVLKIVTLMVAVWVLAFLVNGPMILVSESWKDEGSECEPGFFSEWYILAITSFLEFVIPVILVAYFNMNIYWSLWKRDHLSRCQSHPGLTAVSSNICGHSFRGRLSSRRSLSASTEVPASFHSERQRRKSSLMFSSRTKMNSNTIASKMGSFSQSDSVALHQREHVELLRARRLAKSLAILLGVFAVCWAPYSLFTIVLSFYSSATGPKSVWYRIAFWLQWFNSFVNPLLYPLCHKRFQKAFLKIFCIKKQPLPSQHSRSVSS
H1 receptor, sequence (P35367 whole entry): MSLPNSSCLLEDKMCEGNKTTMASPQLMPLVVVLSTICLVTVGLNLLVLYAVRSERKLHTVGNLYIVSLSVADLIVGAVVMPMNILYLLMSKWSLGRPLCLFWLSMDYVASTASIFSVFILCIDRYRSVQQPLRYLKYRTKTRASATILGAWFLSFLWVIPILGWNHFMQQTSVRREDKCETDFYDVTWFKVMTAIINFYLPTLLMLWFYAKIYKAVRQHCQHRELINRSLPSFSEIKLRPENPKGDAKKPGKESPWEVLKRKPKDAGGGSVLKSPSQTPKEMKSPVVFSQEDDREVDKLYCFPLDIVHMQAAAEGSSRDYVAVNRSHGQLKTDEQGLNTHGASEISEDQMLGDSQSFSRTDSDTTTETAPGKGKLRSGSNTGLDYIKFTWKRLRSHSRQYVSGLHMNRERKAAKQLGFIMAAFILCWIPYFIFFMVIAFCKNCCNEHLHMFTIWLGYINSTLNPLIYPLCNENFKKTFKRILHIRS

Compound: CN1CCN(C2=Nc3cc(Cl)c(F)cc3Nc3ccccc32)CC1 [Fluoroclozapine, 11-(4-methylpiperazine-1-yl)-7-fluoro-8-chloro-5H-dibenzo[b,e][1,4]diazepine]
- Sedation: total distance traveled by animals [1]: significantly lower
- EC50 ([2]; M4, agonism set-up): 16 µM
- IC50 ([2]; M4, antagonism set-up): 4.8 µM
- Kb [3]: 260 nM
- Inhibition of twitches induced by 5-OT [4]: most evident inhibition of twitches
- Functional response on M1 receptor (agonism) [5]: virtually no effect on M1 receptors
- Activity in relation to adrenergic receptors [6]: relatively weak activity
- Kb ([7]; determined by IC50 values in the set-up of antagonism): 50 nM
- Therapeutic window (Kb, D2/Kb, D4) ([7]; ratio of the applicant's Kb values): 5.2
- Concentrations of parent and metabolite in the brain [8]: consistent
- Metabolism [8]: is metabolized to desmethylfluoroclozapine in rats
- Restoration of PPI at a dose of 10 mg/kg ([9]; 10 mg/kg): comparable to clozapine activity at a dose of 5 mg/kg
- Restoration of the PPI deficit caused by ketamine ([9]; doses of 5 and 10 mg/kg): statistically significant dose-dependent restoration of the PPI deficit
- Basophils [10]: 1.0 ± 0.3%
- ESR [10]: 4.2 ± 0.4 mm/h
- Eosinophils [10]: 0.8 ± 0.4%
- Hemoglobin [10]: 155.4 ± 2.1 g/L
- Ht [10]: 43.2 ± 0.7%
- Lymphocytes [10]: 67.8 ± 2.4%
- MCH [10]: 18.4 ± 0.1 pg
- MCHC [10]: 359.4 ± 1.9 g/L
- MCV [10]: 51.3 ± 0.5 fL
- Metamyelocytes [10]: 0.0 ± 0.0%
- Monocytes [10]: 6.4 ± 0.5%
- Myelocytes [10]: 0.0 ± 0.0%
- Number of circulating neutrophils in peripheral blood versus control group [10]: did not differ so much different from that of the control group
- PLT count [10]: 666.4 ± 26.0 10^9/l
- Plasma cells [10]: 0.0 ± 0.0%
- RBC count [10]: 8.43 ± 0.07 10^12/l
- Rt [10]: 77.6 ± 4.6 10^9/l
- Segmented neutrophils [10]: 20.8 ± 1.5%
- Stab neutrophiles [10]: 3.2 ± 0.4%
- WBC count [10]: 11.2 ± 0.8 10^9/l
- EC50 [11]: 170 nM
- IC50 [12]: 18 nM
